How the values were obtained:
Test in all cases: relative viability (nuclei count vs DMSO), 5 days (fraction); higher = more cells survive
ChaGo-K-1 = system: ChaGo-K-1
Outline: (§1)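 Nuclei were stained with Hoechst during a one-step fixation (final 0.05% Triton X-100, 1% formaldehyde, 1 ug/ml Hoechst) carried out 5 days after dosing, then counted on 4× images. The cells, lung cancer lines in 1536-well plates, had been dosed by pin tool the day after seeding with one drug alone or a fixed anchor-drug dose plus five library-drug doses (not always all listed) in √10 steps. Relative viability is the nuclei count in treated wells divided by that in vehicle wells, and each value is the median of duplicate plates.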

EKVX = system: EKVX
Outline: as §1

EPLC-272H = system: EPLC-272H
Outline: as §1

H3255 = system: H3255
Outline: as §1

HCC-827 = system: HCC-827
Outline: as §1

HOP-62 = system: HOP-62
Outline: as §1

LCLC-97TM1 = system: LCLC-97TM1
Outline: as §1

LK-2 = system: LK-2
Outline: as §1

LU99A = system: LU99A
Outline: as §1

LXF-289 = system: LXF-289
Outline: as §1

NCI-H1355 = system: NCI-H1355
Outline: as §1

NCI-H1650 = system: NCI-H1650
Outline: as §1

NCI-H1993 = system: NCI-H1993
Outline: as §1

NCI-H2170 = system: NCI-H2170
Outline: as §1

NCI-H2228 = system: NCI-H2228
Outline: as §1

NCI-H2405 = system: NCI-H2405
Outline: as §1

NCI-H3122 = system: NCI-H3122
Outline: as §1

NCI-H441 = system: NCI-H441
Outline: as §1

NCI-H522 = system: NCI-H522
Outline: as §1

PC-3 [JPC-3] = system: PC-3 [JPC-3]
Outline: as §1

SK-LU-1 = system: SK-LU-1
Outline: as §1

SW 1573 = system: SW 1573
Outline: as §1

UMC-11 = system: UMC-11
Outline: as §1

What does the source list for Cc1cn(-c2cc(NC(=O)c3ccc(C)c(Nc4nccc(-c5cccnc5)n4)c3)cc(C(F)(F)F)c2)cn1 [Nilotinib] + Cc1nc(Nc2ncc(C(=O)Nc3c(C)cccc3Cl)s2)cc(N2CCN(CCO)CC2)n1 [Dasatinib] (partner 0.075 µM)?
relative viability (ChaGo-K-1; first compound 0.001 µM): 0.521; relative viability (ChaGo-K-1; first compound 0.003162 µM): 0.598; relative viability (ChaGo-K-1; first compound 0.01 µM): 0.634; relative viability (ChaGo-K-1; first compound 0.03162 µM): 0.372; relative viability (ChaGo-K-1; first compound 0.1 µM): 0.331; relative viability (EKVX; first compound 0.001 µM): 0.461; relative viability (EKVX; first compound 0.003162 µM): 0.477; relative viability (EKVX; first compound 0.01 µM): 0.554; relative viability (EKVX; first compound 0.03162 µM): 0.467; relative viability (EKVX; first compound 0.1 µM): 0.432; relative viability (EPLC-272H; first compound 0.001 µM): 0.303; relative viability (EPLC-272H; first compound 0.003162 µM): 0.343; relative viability (EPLC-272H; first compound 0.01 µM): 0.364; relative viability (EPLC-272H; first compound 0.03162 µM): 0.226; relative viability (EPLC-272H; first compound 0.1 µM): 0.107; relative viability (H3255; first compound 0.001 µM): 0.381; relative viability (H3255; first compound 0.003162 µM): 0.325; relative viability (H3255; first compound 0.03162 µM): 0.316; relative viability (H3255; first compound 0.1 µM): 0.304; relative viability (HCC-827; first compound 0.001 µM): 0.301; relative viability (HCC-827; first compound 0.003162 µM): 0.308; relative viability (HCC-827; first compound 0.01 µM): 0.329; relative viability (HCC-827; first compound 0.03162 µM): 0.283; relative viability (HCC-827; first compound 0.1 µM): 0.284; relative viability (HOP-62; first compound 0.001 µM): 0.603; relative viability (HOP-62; first compound 0.003162 µM): 0.67; relative viability (HOP-62; first compound 0.01 µM): 0.66; relative viability (HOP-62; first compound 0.03162 µM): 0.491; relative viability (HOP-62; first compound 0.1 µM): 0.476; relative viability (LCLC-97TM1; first compound 0.001 µM): 0.855; relative viability (LCLC-97TM1; first compound 0.003162 µM): 0.896; relative viability (LCLC-97TM1; first compound 0.01 µM): 0.971; relative viability (LCLC-97TM1; first compound 0.03162 µM): 0.654; relative viability (LCLC-97TM1; first compound 0.1 µM): 0.617; relative viability (LK-2; first compound 0.001 µM): 0.311; relative viability (LK-2; first compound 0.003162 µM): 0.239; relative viability (LK-2; first compound 0.01 µM): 0.294; relative viability (LK-2; first compound 0.03162 µM): 0.247; relative viability (LK-2; first compound 0.1 µM): 0.183; relative viability (LU99A; first compound 0.001 µM): 0.482; relative viability (LU99A; first compound 0.003162 µM): 0.702; relative viability (LU99A; first compound 0.01 µM): 0.557; relative viability (LU99A; first compound 0.03162 µM): 0.359; relative viability (LU99A; first compound 0.1 µM): 0.282; relative viability (LXF-289; first compound 0.001 µM): 0.214; relative viability (LXF-289; first compound 0.003162 µM): 0.239; relative viability (LXF-289; first compound 0.01 µM): 0.188; relative viability (LXF-289; first compound 0.03162 µM): 0.207; relative viability (LXF-289; first compound 0.1 µM): 0.136; relative viability (NCI-H1355; first compound 0.001 µM): 0.653; relative viability (NCI-H1355; first compound 0.003162 µM): 0.751; relative viability (NCI-H1355; first compound 0.01 µM): 0.556; relative viability (NCI-H1355; first compound 0.03162 µM): 0.46; relative viability (NCI-H1355; first compound 0.1 µM): 0.333; relative viability (NCI-H1650; first compound 0.001 µM): 0.335; relative viability (NCI-H1650; first compound 0.003162 µM): 0.32; relative viability (NCI-H1650; first compound 0.01 µM): 0.265; relative viability (NCI-H1650; first compound 0.03162 µM): 0.321; relative viability (NCI-H1650; first compound 0.1 µM): 0.21; relative viability (NCI-H1993; first compound 0.001 µM): 0.625; relative viability (NCI-H1993; first compound 0.003162 µM): 0.546; relative viability (NCI-H1993; first compound 0.01 µM): 0.495; relative viability (NCI-H1993; first compound 0.03162 µM): 0.516; relative viability (NCI-H1993; first compound 0.1 µM): 0.627; relative viability (NCI-H2170; first compound 0.001 µM): 0.591; relative viability (NCI-H2170; first compound 0.003162 µM): 0.576; relative viability (NCI-H2170; first compound 0.01 µM): 0.736; relative viability (NCI-H2170; first compound 0.03162 µM): 0.465; relative viability (NCI-H2170; first compound 0.1 µM): 0.406; relative viability (NCI-H2228; first compound 0.003162 µM): 0.622; relative viability (NCI-H2228; first compound 0.01 µM): 0.628; relative viability (NCI-H2228; first compound 0.03162 µM): 0.424; relative viability (NCI-H2228; first compound 0.1 µM): 0.159; relative viability (NCI-H2405; first compound 0.001 µM): 0.219; relative viability (NCI-H2405; first compound 0.003162 µM): 0.205; relative viability (NCI-H2405; first compound 0.01 µM): 0.214; relative viability (NCI-H2405; first compound 0.03162 µM): 0.221; relative viability (NCI-H2405; first compound 0.1 µM): 0.207; relative viability (NCI-H3122; first compound 0.001 µM): 0.719; relative viability (NCI-H3122; first compound 0.003162 µM): 0.91; relative viability (NCI-H3122; first compound 0.01 µM): 0.982; relative viability (NCI-H3122; first compound 0.03162 µM): 0.267; relative viability (NCI-H3122; first compound 0.1 µM): 0.129; relative viability (NCI-H441; first compound 0.001 µM): 0.523; relative viability (NCI-H441; first compound 0.003162 µM): 0.712; relative viability (NCI-H441; first compound 0.01 µM): 0.632; relative viability (NCI-H441; first compound 0.03162 µM): 0.369; relative viability (NCI-H441; first compound 0.1 µM): 0.417; relative viability (NCI-H522; first compound 0.001 µM): 0.851; relative viability (NCI-H522; first compound 0.003162 µM): 0.873; relative viability (NCI-H522; first compound 0.01 µM): 1.16; relative viability (NCI-H522; first compound 0.03162 µM): 0.715; relative viability (NCI-H522; first compound 0.1 µM): 0.596; relative viability (PC-3 [JPC-3]; first compound 0.001 µM): 0.95; relative viability (PC-3 [JPC-3]; first compound 0.003162 µM): 1.09; relative viability (PC-3 [JPC-3]; first compound 0.01 µM): 1.1; relative viability (PC-3 [JPC-3]; first compound 0.03162 µM): 0.844; relative viability (PC-3 [JPC-3]; first compound 0.1 µM): 0.528; relative viability (SK-LU-1; first compound 0.001 µM): 0.196; relative viability (SK-LU-1; first compound 0.003162 µM): 0.146; relative viability (SK-LU-1; first compound 0.01 µM): 0.21; relative viability (SK-LU-1; first compound 0.03162 µM): 0.177; relative viability (SK-LU-1; first compound 0.1 µM): 0.177; relative viability (SW 1573; first compound 0.001 µM): 0.398; relative viability (SW 1573; first compound 0.003162 µM): 0.455; relative viability (SW 1573; first compound 0.01 µM): 0.749; relative viability (SW 1573; first compound 0.03162 µM): 0.234; relative viability (SW 1573; first compound 0.1 µM): 0.261; relative viability (UMC-11; first compound 0.001 µM): 0.41; relative viability (UMC-11; first compound 0.003162 µM): 0.655; relative viability (UMC-11; first compound 0.01 µM): 0.649; relative viability (UMC-11; first compound 0.1 µM): 0.247

Source: the supplement of paper PMC10307832
